Test results reported in patent US20070142437A1, “CHEMICAL COMPOUNDS” (priority 2005, published 2007).

Experiments:
Type in all cases: biochemical
hVEGFR2 = hVEGFR2 (Homo sapiens, UniProt P35968); experiment: VEGFR2 HTRF assay; details: Inhibition of VEGFR2
Description: The compounds of the present invention elicit important and measurable pharmacological responses. Different compounds from this class are particularly effective at inhibiting VEGFR2 enzymes, as described by the VEGFR2 HTRF assay below, at concentrations, which range from 0.0001 to 1 μM.
The assays were performed in 96-well black plates. 10 nM hVEGFR2 was used to phosphorylate 0.36 μM peptide (Biotin-Ahx-EEEEYFELVAKKKK) in the presence of 75 μM ATP, 5 mM MgCl2, 0.3 mM DTT, 0.1 mg/ml BSA, and 0.1 M HEPES (pH 7.5). 10 μl 0.5 M EDTA was added to reactions as negative controls. The 50 μl kinase reaction with or without inhibitors in 5% DMSO was carried out at room temperature for 45 minutes, then stopped by 40 μl of 125 mM EDTA. 2.4 μg/ml Streptavidin-APC and 0.15 μg/ml Eu-α-pY, in the presence of 0.1 mg/ml BSA, 0.1 M HEPES (pH7.5), were added to a final volume of 140 μl. The plate was incubated for 10 min at room temperature (22° C.) and read on the Victor with the time resolved fluorescence mode by exciting at 340 nm and reading the emission at 665 nm.
• Peptide from Synpep (Dublin, Calif.) • ATP, MgCl2, DTT, BSA, HEPES, EDTA, DMSO from Sigma Streptavidin-APC from Molecular Probes (Eugene, Oreg.) • Eu-α-pY from EG&G Wallac (Gaithersburg, Md.)

CDK4 = molecular target: T1, CDK4 (Homo sapiens, UniProt P11802); experiment: CDK4 substrate phosphorylation assay (Rb protein, 33P-ATP); details: Inhibition of CDK4
T1 construct: made in house
T1 sequence (P11802 whole entry, species assumed): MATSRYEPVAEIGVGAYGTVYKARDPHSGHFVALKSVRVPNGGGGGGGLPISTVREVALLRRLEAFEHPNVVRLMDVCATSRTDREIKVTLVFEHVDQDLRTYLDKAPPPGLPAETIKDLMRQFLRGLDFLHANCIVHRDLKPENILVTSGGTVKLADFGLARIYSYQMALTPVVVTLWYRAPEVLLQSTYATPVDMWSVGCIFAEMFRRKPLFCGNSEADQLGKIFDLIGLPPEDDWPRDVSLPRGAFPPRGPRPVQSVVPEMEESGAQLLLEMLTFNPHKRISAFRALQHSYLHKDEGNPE
T1 sequence (P24385 whole entry partner, species assumed): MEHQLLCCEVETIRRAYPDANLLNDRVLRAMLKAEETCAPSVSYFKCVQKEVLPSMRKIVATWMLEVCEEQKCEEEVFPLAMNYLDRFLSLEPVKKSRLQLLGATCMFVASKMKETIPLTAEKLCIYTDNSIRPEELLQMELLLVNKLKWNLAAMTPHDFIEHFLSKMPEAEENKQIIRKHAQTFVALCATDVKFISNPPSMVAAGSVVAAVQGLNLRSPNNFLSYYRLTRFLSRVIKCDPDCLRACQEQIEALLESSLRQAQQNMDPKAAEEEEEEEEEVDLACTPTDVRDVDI
Description: (§1) The compounds of the present invention have valuable pharmacologic properties. Different compounds from this class are particularly effective at inhibiting CDK2 and/or CDK4 enzymes at concentrations, which range from 0.0001 to 1 μM and additionally show specificity relative to other kinases. Substrate phosphorylation assays were carried out as follows:
Cyclin D1 and cyclin-dependent kinase 4 were expressed utilizing a baculovirus expression system. The catalytic activity of CDK4 protein was assayed by measuring the phosphorylation of Rb protein. A truncated Rb protein (residues 773-928 of the native retinoblastoma protein, fused to glutathione S-transferase to facilitate purification) was used as the phosphoryl acceptor. The assay conditions were 100 mM HEPES (N-[2-hydroxyethyl]piperzine-N′-[2-ethanesulfonic acid]), pH 7.5, 0.5 μM GST-Rb protein, 1 μCi/mL [^33P]-ATP (1 nM-20 μM), 5-20 mM MgCl2, 2.5 mM EDTA, 1 mM dithiotheitol, 0.2 mg/mL bovine serum albumin, 2% (v/v) dimethyl sulfoxide (DMSO), CDK4 enzyme (5-50 nM) in a final volume of 50 μL. Reactions were incubated for time periods of 10-60 min at 30° C. and terminated by the addition of 50 μL quench (1 mM ATP/100 mM EDTA, pH 7.0). Detection of protein phosphorylation was accomplished by scintillation counting following collection of protein in 96 well plates coated with Glutathione or trapping of protein onto phosphocellulose filters. Counts detected by these methodologies minus the appropriate background were assumed to be proportional to the reaction initial rates. IC50 values were determined by measuring enzyme activity in the presence of different inhibitor concentrations (0.1 nM to 50 μM). IC50s were determined by a least squares fit to the equation CPM=Vmax*(1−([I]/(K+[I])))+nsb, or pIC50s were determined by a fit to the equation CPM=nsb+(Vmax−nsb)/(1+(x/10^x−pIC50)), where nsb are the background counts.

CDK2 = molecular target: T2, CDK2 (Homo sapiens, UniProt P24941); experiment: CDK2 substrate phosphorylation assay (biotinylated peptide, 32P-ATP); details: Inhibition of CDK2
T2 construct: made in house
Description: as §1
Cyclin dependent protein kinase 2 assays utilized the peptide Biotin-aminohexyl-ARRPMSPKKKA-NH2 as phosphoryl group acceptor. CDK2 was expressed utilizing a baculovirus expression system and was partially purified to comprise 20-80% of total protein, with no detectable competing reactions present. Typically, assays were performed by incubating enzyme (0.2-10 nM), with and without inhibitor, peptide substrate (1-10 nM), [g-^32P]ATP (1-20 nM), and 10-20 mM Mg^2+ for periods of time generally within the range 10-120 minutes. Reactions were terminated with 0.2-2 volumes of either 20% acetic acid or 50-100 mM EDTA buffered to pH 7 (substrate consumption <20%). The buffer employed in enzyme assay was 100 mM HEPES pH 7.5 containing 0.1 mg/mL BSA and 5% DMSO. Inhibitors were diluted in 100% DMSO prior to addition into the assay. Detection of peptide phosphorylation was accomplished by scintillation counting following either collection of peptide onto phosphocellulose filters (for reactions stopped with acetic acid), collection of peptide in wells of 96 well plates coated with Streptavidin (Pierce) (reactions were stopped with EDTA), or addition of Avidin coated Scintillant impregnated beads (Scintillation Proximity Assays from Amersham, reactions were stopped with EDTA). Counts detected by any of these methodologies minus the appropriate background (assays with additional 40 mM EDTA or lacking peptide substrate) were assumed to be proportional to the reaction initial rates, and IC50s were determined by a least squares fit to the equation CPM=Vmax*(1−([I]/(K+[I])))+nsb, or −pIC50s were determined by a fit to the equation CPM=nsb+(Vmax−nsb)/(1+(x/10^x−pIC50)), where nsb are the background counts. Filters are washed four times with 75 mM phosphoric acid. Radioactivity was determined by liquid scintillation counting.

Sequence of hVEGFR2 (P35968 20-1356): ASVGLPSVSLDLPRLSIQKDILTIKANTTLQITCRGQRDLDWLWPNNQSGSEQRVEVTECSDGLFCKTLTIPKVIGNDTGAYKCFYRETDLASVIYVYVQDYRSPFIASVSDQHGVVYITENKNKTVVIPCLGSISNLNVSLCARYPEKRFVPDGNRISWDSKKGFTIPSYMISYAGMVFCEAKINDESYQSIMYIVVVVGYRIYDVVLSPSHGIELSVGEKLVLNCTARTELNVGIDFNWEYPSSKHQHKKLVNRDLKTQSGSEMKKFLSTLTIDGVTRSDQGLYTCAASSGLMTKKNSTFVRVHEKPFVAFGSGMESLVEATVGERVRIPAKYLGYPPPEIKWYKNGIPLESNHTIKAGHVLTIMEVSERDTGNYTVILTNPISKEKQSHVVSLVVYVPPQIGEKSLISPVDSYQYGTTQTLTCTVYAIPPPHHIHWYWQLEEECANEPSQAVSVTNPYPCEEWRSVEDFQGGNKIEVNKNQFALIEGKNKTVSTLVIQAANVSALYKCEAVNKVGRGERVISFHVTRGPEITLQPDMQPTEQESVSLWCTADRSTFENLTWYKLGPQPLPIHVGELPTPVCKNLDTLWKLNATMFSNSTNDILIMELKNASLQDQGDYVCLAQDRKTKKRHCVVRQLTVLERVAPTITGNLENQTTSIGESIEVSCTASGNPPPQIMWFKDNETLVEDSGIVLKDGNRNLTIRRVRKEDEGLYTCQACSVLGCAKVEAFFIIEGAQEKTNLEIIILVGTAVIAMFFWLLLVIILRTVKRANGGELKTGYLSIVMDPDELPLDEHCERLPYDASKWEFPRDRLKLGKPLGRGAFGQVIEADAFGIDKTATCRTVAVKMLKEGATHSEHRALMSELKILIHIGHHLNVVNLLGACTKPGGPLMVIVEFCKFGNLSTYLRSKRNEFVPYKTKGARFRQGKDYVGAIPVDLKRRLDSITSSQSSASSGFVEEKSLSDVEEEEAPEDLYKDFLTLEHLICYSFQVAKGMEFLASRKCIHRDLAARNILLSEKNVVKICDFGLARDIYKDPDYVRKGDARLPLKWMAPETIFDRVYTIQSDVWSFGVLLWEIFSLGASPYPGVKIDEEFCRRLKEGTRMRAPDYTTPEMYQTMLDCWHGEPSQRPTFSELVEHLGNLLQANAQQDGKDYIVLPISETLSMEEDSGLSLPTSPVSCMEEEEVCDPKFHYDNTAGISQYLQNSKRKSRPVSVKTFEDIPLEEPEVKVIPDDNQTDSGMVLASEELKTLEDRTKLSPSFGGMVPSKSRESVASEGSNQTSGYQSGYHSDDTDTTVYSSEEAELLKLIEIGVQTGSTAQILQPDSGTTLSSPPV

IC50 (hVEGFR2)	IC50 (CDK4)	IC50 (CDK2)	Compound
< 1 µM	< 0.1 µM	< 1 µM	COc1cccc(-c2cnc(Nc3ccc(N4CCN(C)CC4)c(F)c3)o2)c1 [Example 20, N-[3-fluoro-4-(4-methylpiperazin-1-yl)phenyl]-5-(3-methoxyphenyl)-1,3-oxazol-2-amine]
< 1 µM	< 0.1 µM	< 1 µM	COc1cccc(-c2cnc(Nc3ccc(N4CCN(C)CC4)c(C(F)(F)F)c3)o2)c1 [Example 21, 5-(3-Methoxyphenyl)-N-[4-(4-methylpiperazin-1-yl)-3-(trifluoromethyl)phenyl]-1,3-oxazol-2-amine]
< 0.1 µM	< 0.1 µM	< 1 µM	COc1cccc(-c2cnc(Nc3ccc(N4CCN(C)CC4)c(C)c3)o2)c1 [Example 22, 5-(3-Methoxyphenyl)-N-[3-methyl-4-(4-methylpiperazin-1-yl)phenyl]-1,3-oxazol-2-amine]
< 1 µM	< 1 µM	< 0.1 µM	COc1cccc(-c2cnc(Nc3ccc(N4CC(C)NC(C)C4)cc3)o2)c1 (stereo not drawn) [Example 23, N-[4-(3,5-dimethylpiperazin-1-yl)phenyl]-5-(3-methoxyphenyl)-1,3-oxazol-2-amine]
< 1 µM	< 1 µM	< 10 µM	COc1cccc(-c2cnc(Nc3ccc(N4CCN(C)CC4)cc3C)o2)c1 [Example 24, 5-(3-methoxyphenyl)-N-[2-methyl-4-(4-methylpiperazin-1-yl)phenyl]-1,3-oxazol-2-amine]
< 1 µM	< 0.1 µM	< 0.1 µM	CN1CCN(c2ccc(Nc3ncc(-c4cccc(OC5CCCC5)c4)o3)cc2C(F)(F)F)CC1 [Example 25, 5-[3-(Cyclopentyloxy)phenyl]-N-[4-(4-methylpiperazin-1-yl)-3-(trifluoromethyl)phenyl]-1,3-oxazol-2-amine]
< 1 µM	< 0.1 µM	< 0.1 µM	CN1CCN(c2ccc(Nc3ncc(-c4cccc(OC5CCCC5)c4)o3)cc2Cl)CC1 [Example 26, N-[3-Chloro-4-(4-methylpiperazin-1-yl)phenyl]-5-[3-(cyclopentyloxy)phenyl]-1,3-oxazol-2-amine]
< 0.1 µM	< 0.1 µM	< 0.1 µM	Cc1cc(Nc2ncc(-c3cccc(OC4CCCC4)c3)o2)ccc1N1CCN(C)CC1 [Example 27, 5-[3-(cyclopentyloxy)phenyl]-N-[3-methyl-4(4-methylpiperazin-1-yl)phenyl]-1,3-oxazol-2-amine]
< 0.1 µM	< 0.1 µM	< 0.1 µM	CN1CCN(c2ccc(Nc3ncc(-c4cccc(OC5CCCC5)c4)o3)cc2F)CC1 [Example 28, 5-[3-(Cyclopentyloxy)phenyl]-N-[3-fluoro-4-(4-methylpiperazin-1-yl)phenyl]-1,3-oxazol-2-amine]
< 1 µM	< 1 µM	< 10 µM	c1cc(OC2CCCC2)cc(-c2cnc(Nc3ccc(N4CCSCC4)cc3)o2)c1 [Example 30, 5-[3-(Cyclopentyloxy)phenyl]-N-(4-thiomorpholin-4-ylphenyl)-1,3-oxazol-2-amine]
< 1 µM	< 1 µM	< 1 µM	COc1cccc(-c2cnc(Nc3ccc(N4CCN(C)CC4)nc3)o2)c1 [Example 31, N-[5-(3-methoxyphenyl)-1,3-oxazol-2-yl]-6-(4-methylpiperazin-1-yl)pyridin-3-amine]
< 1 µM	< 0.1 µM	< 0.1 µM	CN1CCN(c2ccc(Nc3ncc(-c4cccc(OC5CCCC5)c4)o3)cn2)CC1 [Example 34, N-{5-[3-(cyclopentyloxy)phenyl]-1,3-oxazol-2-yl}-6-(4-methylpiperazin-1-yl)pyridin-3-amine]
< 10 µM	< 10 µM	< 10 µM	CCN(CC)c1ccc(Nc2ncc(-c3cccc(OC)c3)o2)cn1 [Example 35, N^2,N^2-diethyl-N^5-[5-(3-methoxyphenyl)-1,3-oxazol-2-yl]pyridine-2,5-diamine]
< 10 µM	< 1 µM	< 1 µM	CCN(CC)c1ccc(Nc2ncc(-c3cccc(OC4CCCC4)c3)o2)cn1 [Example 36, N^5-{5-[3-(cyclopentyloxy)phenyl]-1,3-oxazol-2-yl}-N^2,N^2-diethylpyridine-2,5-diamine]
< 1 µM	< 0.1 µM	< 1 µM	Cc1cc(Nc2ncc(-c3cccc(OC4CCCC4)c3)o2)cnc1N1CCN(C)CC1 [Example 37, N-{5-[3-(cyclopentyloxy)phenyl]-1,3-oxazol-2-yl}-5-methyl-6-(4-methylpiperazin-1-yl)pyridin-3-amine]
< 1 µM	< 1 µM	< 1 µM	COc1cccc(-c2cnc(Nc3ccc(CN4CCN(C)CC4)cc3)o2)c1 [Example 38, 5-(3-methoxyphenyl)-N-{4-[(4-methylpiperazin-1-yl)methyl]phenyl}-1,3-oxazol-2-amine]
< 1 µM	< 1 µM	< 1 µM	CN1CCN(Cc2ccc(Nc3ncc(-c4ccccc4)o3)cc2)CC1 [Example 39, N-{4-[(4-methylpiperazin-1-yl)methyl]phenyl}-5-phenyl-1,3-oxazol-2-amine]
< 1 µM	< 0.1 µM	< 1 µM	COc1cccc(-c2cnc(Nc3ccc(CN(C)C)cc3)o2)c1 [Example 40, N-{4-[(dimethylamino)methyl]phenyl}-5-(3-methoxyphenyl)-1,3-oxazol-2-amine]
< 1 µM	< 0.1 µM	< 1 µM	COc1cccc(-c2cnc(Nc3ccc(CCN(C)C)cc3)o2)c1 [Example 42]
< 1 µM	< 0.1 µM	< 1 µM	COc1cccc(-c2cnc(Nc3ccc(CN4CCCCC4)cc3)o2)c1 [Example 43, 5-(3-methoxyphenyl)-N-[4-(piperidin-1-ylmethyl)phenyl]-1,3-oxazol-2-amine]
< 0.1 µM	< 0.1 µM	< 1 µM	COc1cccc(-c2cnc(Nc3ccc(CN4CCCC4)cc3)o2)c1 [Example 44, 5-(3-methoxyphenyl)-N-[4-(pyrrolidin-1-ylmethyl)phenyl]-1,3-oxazol-2-amine]
< 1 µM	< 0.1 µM	< 1 µM	CCN(CC)Cc1ccc(Nc2ncc(-c3cccc(OC)c3)o2)cc1 [Example 45, N-{4-[(diethylamino)methyl]phenyl}-5-(3-methoxyphenyl)-1,3-oxazol-2-amine]
